The record followed here is ChEMBL document CHEMBL1140985, “Expanding the repertoire of small molecule transcriptional activation domains” (Bioorg Med Chem, 2009).

In one test the target is T1, Glucocorticoid receptor (Homo sapiens, UniProt P04150).
T1 sequence (P04150 whole entry): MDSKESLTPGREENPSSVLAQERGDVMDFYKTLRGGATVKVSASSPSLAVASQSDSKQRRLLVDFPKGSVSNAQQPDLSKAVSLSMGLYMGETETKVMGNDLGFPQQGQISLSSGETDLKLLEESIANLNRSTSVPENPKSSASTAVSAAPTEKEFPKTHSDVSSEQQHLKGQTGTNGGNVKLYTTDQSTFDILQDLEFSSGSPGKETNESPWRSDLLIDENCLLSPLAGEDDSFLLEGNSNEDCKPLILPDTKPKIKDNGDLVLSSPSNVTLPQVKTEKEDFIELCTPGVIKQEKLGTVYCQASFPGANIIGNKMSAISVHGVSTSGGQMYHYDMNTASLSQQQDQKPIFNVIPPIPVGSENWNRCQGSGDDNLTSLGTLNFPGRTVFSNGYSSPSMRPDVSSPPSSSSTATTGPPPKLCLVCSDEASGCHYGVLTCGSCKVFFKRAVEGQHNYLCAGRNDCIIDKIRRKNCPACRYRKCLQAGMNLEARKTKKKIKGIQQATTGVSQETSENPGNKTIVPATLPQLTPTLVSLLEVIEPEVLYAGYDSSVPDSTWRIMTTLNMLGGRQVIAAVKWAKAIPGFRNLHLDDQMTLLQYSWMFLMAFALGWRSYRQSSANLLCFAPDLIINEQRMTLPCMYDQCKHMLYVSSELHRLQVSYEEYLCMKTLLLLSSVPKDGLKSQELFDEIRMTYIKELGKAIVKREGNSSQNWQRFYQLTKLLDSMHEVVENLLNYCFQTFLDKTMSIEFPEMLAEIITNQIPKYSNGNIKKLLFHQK
The test can be described thus: Transcriptional activation of Gal4(1-147) tagged glucocorticoid receptor in human HeLa cells by luciferase reporter gene assay relative to OxDex-AEEA. It is filed as cell-based.

Test [1] concerns the target T2, Glucocorticoid receptor (Homo sapiens) (UniProt P04150).
T2 sequence (whole entry): T1 sequence (P04150 whole entry)
The test can be described thus: Transcriptional activation of Gal4(1-147) tagged glucocorticoid receptor in human HeLa cells at 1 uM by luciferase reporter gene assay relative to OxDex-AEEA. In kind it is cell-based. In general terms: A reporter such as luciferase makes a cellular process visible.

The term EC50 denotes the concentration giving half of the maximal effect. For the compound `CC(C)C[C@](CCO)(C[C@H](O)CNC(=O)COCCOCCNC(=O)[C@@]1(O)[C@H](C)C[C@H]2[C@@H]3CCC4=CC(=O)C=C[C@]4(C)[C@@]3(F)[C@@H](O)C[C@@]21C)NCc1ccccc1`, the EC50 on Glucocorticoid receptor was 2500 nM.

On Glucocorticoid receptor, `CC(C)C[C@@H](NC(=O)COCCOCCNC(=O)[C@@]1(O)[C@H](C)C[C@H]2[C@@H]3CCC4=CC(=O)C=C[C@]4(C)[C@@]3(F)[C@@H](O)C[C@@]21C)C(=O)N[C@H](CO)C(=O)N[C@H](Cc1ccccc1)C(N)=O` came in with a 50% effective concentration (EC50) of 1860 nM.

In test [1], `CC(C)C[C@]1(CCO)C[C@H](CNC(=O)COCCOCCNC(=O)[C@@]2(O)[C@H](C)C[C@H]3[C@@H]4CCC5=CC(=O)C=C[C@]5(C)[C@@]4(F)[C@@H](O)C[C@@]32C)ON1Cc1ccccc1` showed a fold change (FC) of 80. This compound came in with a concentration giving a half-maximal response (EC50) on Glucocorticoid receptor of 33 nM.
